Results on five compounds are retold here after patent US5476851A, “Pyrazolo[3,4-g]quinoxaline compounds which inhibit PDGF receptor protein tyrosine kinase” (Rhone-Poulenc Rorer Pharmaceuticals, Inc., priority 1994, dated 1995).

For this assay, the target named is T1, PDGF-R (Mus musculus, UniProt P05622).
T1 construct: endogenous in cells; host or cells: NIH 3T3 cells (lysate, immunoprecipitate)
T1 sequence (P05622 32-1098): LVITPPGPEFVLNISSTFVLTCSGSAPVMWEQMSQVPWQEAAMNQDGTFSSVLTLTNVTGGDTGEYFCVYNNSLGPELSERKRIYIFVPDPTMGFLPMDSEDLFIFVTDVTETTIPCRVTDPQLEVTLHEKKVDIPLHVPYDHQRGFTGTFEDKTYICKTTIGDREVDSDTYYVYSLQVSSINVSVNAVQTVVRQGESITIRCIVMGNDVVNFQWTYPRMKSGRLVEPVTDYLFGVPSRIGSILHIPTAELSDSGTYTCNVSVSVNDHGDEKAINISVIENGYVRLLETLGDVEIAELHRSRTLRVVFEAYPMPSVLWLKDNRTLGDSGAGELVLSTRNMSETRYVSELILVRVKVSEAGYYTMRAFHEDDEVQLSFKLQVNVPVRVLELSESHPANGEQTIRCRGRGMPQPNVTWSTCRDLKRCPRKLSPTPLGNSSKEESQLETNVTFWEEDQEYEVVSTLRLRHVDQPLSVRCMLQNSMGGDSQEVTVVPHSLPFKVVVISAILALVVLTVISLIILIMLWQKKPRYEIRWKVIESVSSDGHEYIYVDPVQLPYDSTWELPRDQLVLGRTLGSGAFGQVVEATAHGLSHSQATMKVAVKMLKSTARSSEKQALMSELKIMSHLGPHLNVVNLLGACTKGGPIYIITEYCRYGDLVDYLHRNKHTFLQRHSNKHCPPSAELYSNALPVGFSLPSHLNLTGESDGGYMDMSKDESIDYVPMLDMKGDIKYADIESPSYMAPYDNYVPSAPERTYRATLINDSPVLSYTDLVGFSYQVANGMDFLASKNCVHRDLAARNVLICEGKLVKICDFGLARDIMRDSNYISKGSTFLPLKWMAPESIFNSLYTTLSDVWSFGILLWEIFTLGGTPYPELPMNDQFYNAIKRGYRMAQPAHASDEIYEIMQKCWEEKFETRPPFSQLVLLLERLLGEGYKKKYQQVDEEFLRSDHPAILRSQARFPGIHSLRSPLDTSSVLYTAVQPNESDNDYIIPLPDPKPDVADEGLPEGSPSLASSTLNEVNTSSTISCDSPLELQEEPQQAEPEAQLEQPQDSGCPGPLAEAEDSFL
The assay is described as follows: Inhibition of PDGF-R cell-free autophosphorylation. The assay is classed as biochemical. Conditions: lysate from NIH 3T3 cells, stimulated with 10 ng/ml PDGF, [γ-^32 P]ATP, 4° C., immunoprecipitation. As for the experimental part: In order to test the present compounds for inhibition, the following procedure using PDGF stimulation is used. "IC50," as used below refers to the concentration of inhibitor ([…]) at which the rate of autophosphorylation is halved, compared with media containing no inhibitor.
Inhibition of PDGF-R Autophosphorylation
Lysate from NIH 3T3 cells was diluted one-third in Triton-free buffer and stimulated with 10 ng/ml PDGF for 30 minutes at 4° C. The equivalent of 1/15 of a 175. cm^2 plate of lysate was used per sample. The stimulated lysate was then immunoprecipitated with rabbit polyclonal anti-PDGF-receptor antibodies raised against a synthetic peptide from the COOH-terminal region (amino acids 1094-1106) or the human PDGF-receptor β-subunit and added to increasing concentrations of test compound of the present invention. After 10 minutes at 4° C., 10 μCi of [γ-^32 P]ATP were added and further incubated for 10 minutes at 4° C. Samples were separated by SDS-PAGE on 6% gels.
The following tables show examples of representative compounds of this invention and their test results as determined by the above inhibition of PDGF-R cell-free autophosphorylation procedure.
For `COc1ccc(-c2cnc3cc4cnn(C)c4cc3n2)cc1F`, the IC50 (in general, the concentration at which inhibition is half-maximal) is under 2000 nM. Under `Clc1ccc(-c2cnc3cc4cn[nH]c4cc3n2)s1` stands 2000 to 10000 nM; under `COc1ccc(-c2cnc3cc4cn(C)nc4cc3n2)cc1F`, under 20 nM; under `Cn1cc2cc3ncc(-c4ccc(Cl)s4)nc3cc2n1`, 300 nM. The compound `COc1ccc(-c2cnc3cc4cn[nH]c4cc3n2)cc1F` came in with an IC50 of under 20 nM.
